Data as given in patent US20230257415A1, “COMPOUNDS FOR TREATING CNS DISORDERS” (SAGE THERAPEUTICS, INC., priority 2019, published 2023).

Target: GABAA receptor
Assay: [35S]-TBPS binding assay, rat brain cortical membranes, in the presence of GABA
Conditions: inhibition of 3 nM [35S]-TBPS binding, 5 mM GABA, 90 min, room temp
Method: [35S]-t-Butylbicyclophosphorothionate (TBPS) binding assays using rat brain cortical membranes in the presence of 5 mM GABA has been described (Gee et al, J. Pharmacol. Exp. Ther. 1987, 241, 346-353; Hawkinson et al, Mol. Pharmacol. 1994, 46, 977-985; Lewin, A.H et al., Mol. Pharmacol. 1989, 35, 189-194).
Briefly, cortices are rapidly removed following decapitation of carbon dioxide-anesthetized Sprague-Dawley rats (200-250 g). The cortices are homogenized in 10 volumes of ice-cold 0.32 M sucrose using a glass/teflon homogenizer and centrifuged at 1500 x g for 10 min at 4° C. The resultant supernatants are centrifuged at 10,000 x g for 20 min at 4° C. to obtain the P2 pellets. The P2 pellets are resuspended in 200 mM NaCl/50 mM Na-K phosphate pH 7.4 buffer and centrifuged at 10,000 x g for 10 min at 4° C. This washing procedure is repeated twice and the pellets are resuspended in 10 volumes of buffer. Aliquots ([…]) of the membrane suspensions are incubated with 3 nM [^35S]-TBPS and […] aliquots of test drug dissolved in dimethyl sulfoxide (DMSO) (final 0.5%) in the presence of 5 mM GABA. The incubation is brought to a final volume of 1.0 mL with buffer. […] Following a 90 min incubation at room temp, the assays are terminated by filtration through glass fiber filters (Schleicher and Schuell No. 32) using a cell harvester (Brandel) and rinsed three times with ice-cold buffer. Filter bound radioactivity is measured by liquid scintillation spectrometry. Non-linear curve fitting of the overall data for each drug averaged for each concentration is done using Prism (GraphPad). […] The concentration of test compound producing 50% inhibition (IC50) of specific binding and the maximal extent of inhibition (Imax) are determined for the individual experiments with the same model used for the overall data and then the means ± SEM.s of the individual experiments are calculated.
Various compounds are or can be screened to determine their potential as modulators of [^35S]-TBPS binding in vitro. These assays are or can be performed in accordance with the above.

Row | Structure (SMILES) | IC50
1 | CCC[C@@]1(O)CC[C@H]2[C@@H](CC[C@@H]3[C@@H]2CC[C@]2(C)[C@@H]([C@@H](C)Cn4nnc(C)n4)CCC[C@@H]32)C1 [Example 5, (2R,4aS,4bR,6aS,7R,10aS,10bR,12aS)-6a-methyl-7-((R)-1-(5-methyl-2H-tetrazol-2-yl)propan-2-yl)-2-propyloctadecahydrochrysen-2-ol] | 100 to 1000 nM
2 | CN(C[C@H]1CCC[C@H]2[C@@H]3CC[C@@H]4C[C@](C)(O)CC[C@@H]4[C@H]3CC[C@]12C)C(=O)c1ccccc1 [Example 23, N-(((1S,4aS,4bR,6aR,8R,10aS,10bR,12aS)-8-hydroxy-8,12a-dimethyloctadecahydrochrysen-1-yl)-methyl)-N-methylbenzamide] | 100 to 1000 nM
3 | C[C@@]1(O)CC[C@H]2[C@H](CC[C@@H]3[C@@H]2CC[C@]2(C)[C@@H](CNS(=O)(=O)C4CC4)CCC[C@@H]32)C1 [Example 32, N-(((1S,4aS,4bR,6aR,8R,10aS,10bR,12aS)-8-hydroxy-8,12a-dimethyloctadecahydrochrysen-1-yl)methyl)cyclopropanesulfonamide] | 100 to 1000 nM
4 | Cn1nccc1C(=O)NC[C@H]1CCC[C@H]2[C@@H]3CC[C@@H]4C[C@](C)(O)CC[C@@H]4[C@H]3CC[C@]12C [Example 33, N-(((1S,4aS,4bR,6aR,8R,10aS,10bR,12aS)-8-hydroxy-8,12a-dimethyloctadecahydrochrysen-1-yl)methyl)-1-methyl-1H-pyrazole-5-carboxamide] | 100 to 1000 nM
5 | CCOC[C@@]1(O)CC[C@@H]2C3CC[C@]4(C)[C@@H]([C@@H](C)NC(=O)c5ccc(C#N)cc5F)CCC[C@H]4[C@@H]3CC[C@@H]2C1 (stereo partly drawn) [Example 56] | 100 to 1000 nM
6 | C[C@H](Nc1ccc(C#N)cc1)[C@H]1CCC[C@H]2[C@@H]3CC[C@@H]4C[C@](C)(O)CC[C@@H]4C3CC[C@]12C (stereo partly drawn) [Example 50, 4-(((1S)-1-((1S,4aS,4bR,6aR,8R,10aS,12aS)-8-hydroxy-8,12a-dimethyloctadecahydrochrysen-1-yl)ethyl)amino)benzonitrile] | < 100 nM
7 | CC[C@]12CC[C@@](C)(O)C[C@H]1CC[C@H]1[C@@H]3CCC[C@H](CN(C)S(=O)(=O)c4ccccc4)[C@@]3(C)CC[C@@H]12 [Example 38, N-(((1S,4aS,4bS,6aR,8R,10aS,10bS,12aS)-10a-ethyl-8-hydroxy-8,12a-dimethyloctadecahydrochrysen-1-yl)methyl)-N-methylbenzenesulfonamide] | < 100 nM
8 | C[C@@]1(O)CC[C@H]2[C@H](CC[C@@H]3[C@@H]2CC[C@]2(C)[C@@H](CNC(=O)c4ccccc4)CCC[C@@H]32)C1 [Example 24, N-(((1S,4aS,4bR6aR,8R,10aS,10bR,12aS)-8-hydroxy-8,12a-dimethyloctadecahydrochrysen-1-yl)methyl)benzamide] | 100 to 1000 nM
9 | C[C@@]1(O)CC[C@H]2[C@H](CC[C@@H]3[C@@H]2CC[C@]2(C)[C@@H](CNC(=O)c4ccccc4F)CCC[C@@H]32)C1 [Example 30, 2-fluoro-N-(((1S,4aS,4bR,6aR,8R,10aS,10bR,12aS)-8-hydroxy-8,12a-dimethyloctadecahydrochrysen-1-yl)methyl)benzamide] | < 100 nM
10 | C[C@H](Cn1cc(C#N)cn1)[C@H]1CC[C@H]2[C@@H]3CC[C@@H]4C[C@](C)(O)CCC[C@@H]4[C@H]3CC[C@]12C [Example 22, 1-((S)-2-((1R,3aS,3bR,5aR,7R,10aS,10bR,12aS)-7-hydroxy-7,12a-dimethyloctadecahydrocyclohepta[a]cyclopenta[f]naphthalen-1-yl)propyl)-1H-pyrazole-4-carbonitrile] | < 100 nM
11 | C[C@@H]1CC[C@H]([C@@H](C)Cn2cc(C#N)cn2)[C@@]2(C)CC[C@H]3[C@@H](CC[C@@H]4C[C@](C)(O)CC[C@@H]43)[C@H]12 [Example 11, 1-((R)-2-((1R,4R,4aS,4bR,6aR,8R,10aS,10bR,12aR)-8-hydroxy-4,8,12a-trimethyloctadecahydrochrysen-1-yl)propyl)-1H-pyrazole-4-carbonitrile] | < 100 nM
12 | C[C@@]1(O)CC[C@H]2[C@H](CC[C@@H]3[C@@H]2CC[C@]2(C)[C@@H](CNC(=O)c4cccnc4)CCC[C@@H]32)C1 [Example 35, N-(((1S,4aS,4bR,6aR,8R,10aS,10bR,12aS)-8-hydroxy-8,12a-dimethyloctadecahydrochrysen-1-yl)methyl)nicotinamide] | 100 to 1000 nM
13 | C[C@@H](Cn1cc(C#N)cn1)[C@H]1CCC[C@H]2[C@@H]3CC[C@@H]4C[C@](C)(O)CC[C@@H]4[C@H]3CC[C@]12C [Example 4, 1-((R)-2-((1R,4aS,4bR,6aR,8R,10aS,10bR,12aS)-8-hydroxy-8,12a-dimethyloctadecahydrochrysen-1-yl)propyl)-1H-pyrazole-4-carbonitrile] | < 100 nM
14 | COC[C@@]1(O)CC[C@@H]2C3CC[C@]4(C)[C@@H]([C@H](C)NC(=O)c5ccc(F)cc5)CCC[C@H]4[C@@H]3CC[C@@H]2C1 (stereo partly drawn) [Example 45, 4-fluoro-N-((1S)-1-((1S,4aS,4bR,6aR,8R,10aS,12aS)-8-hydroxy-8-(methoxymethyl)-12a-methyloctadecahydrochrysen-1-yl)ethyl)benzamide] | 100 to 1000 nM
15 | C[C@H](NC(=O)c1ccc(C#N)cc1)[C@H]1CCC[C@H]2[C@@H]3CC[C@@H]4C[C@](C)(O)CC[C@@H]4C3CC[C@]12C (stereo partly drawn) [Example 42, 4-cyano-N-((1S)-1-((1S,4aS,4bR,6aR,8R,10aS,12aS)-8-hydroxy-8,12a-dimethyloctadecahydrochrysen-1-yl)ethyl)benzamide] | 100 to 1000 nM
16 | CCC[C@@]1(O)CC[C@@]2(C)[C@@H](CC[C@@H]3[C@@H]2CC[C@]2(C)[C@@H]([C@@H](C)Cn4nnnc4C)CCC[C@@H]32)C1 [Example 10, (2R,4aS,4bS,6aS,7R,10aS,10bR,12aS)-4a,6a-dimethyl-7-((R)-1-(5-methyl-1H-tetrazol-1-yl)propan-2-yl)-2-propyloctadecahydrochrysen-2-ol] | 100 to 1000 nM
17 | CCOC[C@@]1(O)CC[C@@H]2C3CC[C@]4(C)[C@@H]([C@H](C)NC(=O)c5ccc(F)cc5F)CCC[C@H]4[C@@H]3CC[C@@H]2C1 (stereo partly drawn) [Example 53, N-((1S)-1-((1S,4aS,4bR,6aR,8R,10aS,12aS)-8-(ethoxymethyl)-8-hydroxy-12a-methyloctadecahydrochrysen-1-yl)ethyl)-2,4-difluorobenzamide] | 100 to 1000 nM
18 | C[C@@H]1CC[C@H]([C@H](C)Cn2cc(C#N)cn2)[C@@]2(C)CC[C@H]3[C@@H](CC[C@@H]4C[C@](C)(O)CC[C@@H]43)[C@H]12 [Example 12, 1-((S)-2-((1R,4R,4aS,4bR,6aR,8R,10aS,10bR,12aR)-8-hydroxy-4,8,12a-trimethyloctadecahydrochrysen-1-yl)propyl)-1H-pyrazole-4-carbonitrile] | < 100 nM
